# Measurements: US12121514B2, “Nonselective metabotropic glutamate receptor activators for treatment of attention deficit disorder and 22Q syndrome” (THE CHILDREN'S HOSPITAL OF PHILADELPHIA, priority 2015, dated 2024)
# Tested on: adolescent subjects with ADHD and at least one genetic alteration in an mGluR network gene
# Test: Vanderbilt ADHD score (items 1-18, parent), Phase Ib trial of NFC-1
# Format: in vivo, human
# Conditions: relative to pre-study (enrollment) baseline
# Excerpt: The Vanderbilt Rating Scale is a measure that can be completed by parents or teachers (separate forms, see Vanderbilt Rating Scale Parents and Vanderbilt Rating Scale Teachers). The Vanderbilt scale rates the child's behavior on items such as attention, finishing tasks, hyperactivity, difficulty waiting, and measures of conduct or oppositional defiant disorders—as well as measures of overall school performance and interactions with others. The first 18 items on the Vanderbilt scale correspond to those of the ADHD Rating Scale IV above while the Vanderbilt scale also includes items 19-47 related to other mental disorders including ODD (items 19-26), conduct disorder (items 27-40), anxiety (items 41, 42, and 47), and depression (items 43-46). Each of the behavioral assessment items on the Vanderbilt Scale are rated 0, 1, 2, or 3, with 0=never occurring; 1=occasionally, 2=often, and 3=very often. Thus, the ADHD Rating Scale IV, ADHD Rating Scale V, and items 1-18 of the Vanderbilt Rating Scale are equivalent scales, while additional items on the Vanderbilt Scale assess co-morbid phenotypes and disorders.
# Each of the items are rated on a scale of 0, 1, 2, or 3, with 0=never; 1=occasionally, 2=often, and 3=very often. A total score of 0 to 54 is computed based on the answers to the 18 questions.
# As used herein an “ADHD rating scale score,” “ADHD score” or “Vanderbilt ADHD score” are used interchangeably to refer to the computed score of the 18 items of the ADHD Rating Scale IV or V or the first 18 items of the Vanderbilt Rating Scale in any of their associated versions, e.g., for parent, teacher, or clinician to complete, and for a pediatric subject or adult subject. Clinical trials may assess the impact of drug or placebo on the ADHD score or Vanderbilt ADHD score (i.e. the score of 0 to 54 based on the first 18 items in the ADHD or Vanderbilt rating scale). In some cases, results of a clinical trial population may be analyzed by comparing the average score or a percentage change in score over time of administration of drug.
# An open-label Phase Ib clinical trial was initiated to investigate the safety, pharmacokinetics and efficacy of NFC-1 (fasoracetam monohydrate) in adolescent subjects between the ages of 12 and 17 previously diagnosed with ADHD who also had at least one genetic alteration in an mGluR network gene.
# Dose-escalation phase of the trial followed the PK and initial safety assessment and ran over a 5-week period. During week 1, all subjects were administered placebo capsules twice daily. After one week of placebo treatment, patients were started on 50 mg bid NFC-1 for 1 week. If safety and responsiveness data from prior dose level of fasoracetam indicated it was appropriate, subjects were then escalated to the next higher dose (100, 200, or 400 mg). […] Of the 30 trial subjects, 3 received a maximum dose of 100 mg, 9 received a maximum dose of 200 mg, and the remaining 18 received a maximum dose of 400 mg.
# All efficacy assessments, except actigraphy, were made at study enrollment (“enrollment baseline”) and again, including actigraphy, once-per-week for the placebo week (“week 1” or “placebo baseline”) and at each of the 4 weeks of NFC-1 treatment. These efficacy measures include items 1-18 of the Vanderbilt scale assessing symptoms related to inattentiveness and hyperactivity-impulsiveness as well as additional questions 19-47 of the Vanderbilt scale assessing other behavioral symptoms (conducted by parent), actigraphy for quantitative measurement of activity, Quotient® ADHD test for objective measurement of micro-motion and shifts in attention state, PERMP-Math test, and CGI-I and CGI-S for assessment of global functioning. […]
# [1] = Tier 1, Week 5, up to 400 mg bid
# [2] = Tier 2, Week 3, up to 100 mg bid
# [3] = Tier 2, Week 4, up to 200 mg bid
# [4] = Tier 2, Week 5, up to 400 mg bid
# [5] = Tier 3, Week 3, up to 100 mg bid
# [6] = Tier 3, Week 4, up to 200 mg bid
# [7] = Tier 3, Week 5, up to 400 mg bid
smiles,measurement,setting,value
"O=C1CC[C@H](C(=O)N2CCCCC2)N1 [NFC-1, fasoracetam monohydrate]",Percent of subjects with improvement in Vanderbilt ADHD score (at least 25% decrease),"Tier 1, Week 4, up to 200 mg bid",88%
same,Percent of subjects completing the dose escalation to 400 mg bid that show improvement in Vanderbilt ADHD scores (at least 25% decrease),"Tier 1, Week 5, 400 mg bid",89%
same,Percent of subjects completing the dose escalation to 400 mg bid that show robust improvement in Vanderbilt ADHD scores (at least 40% decrease),"Tier 1, Week 5, 400 mg bid",67%
same,Percent of subjects demonstrating robust improvement in Vanderbilt ADHD score (at least 40% decrease),[1],63%
same,Percent of subjects with improvement in Vanderbilt ADHD score (at least 25% decrease),[1],75%
same,Percent of subjects completing the dose escalation to 400 mg bid that show improvement in Vanderbilt ADHD scores (at least 25% decrease),"Tier 2, Week 2, 50 mg bid",20%
same,Percent of subjects completing the dose escalation to 400 mg bid that show robust improvement in Vanderbilt ADHD scores (at least 40% decrease),"Tier 2, Week 2, 50 mg bid",20%
same,Percent of subjects demonstrating robust improvement in Vanderbilt ADHD score (at least 40% decrease),"Tier 2, Week 2, 50 mg bid",14%
same,Percent of subjects with improvement in Vanderbilt ADHD score (at least 25% decrease),"Tier 2, Week 2, 50 mg bid",29%
same,Percent of subjects completing the dose escalation to 400 mg bid that show improvement in Vanderbilt ADHD scores (at least 25% decrease),"Tier 2, Week 3, 100 mg bid",20%
same,Percent of subjects completing the dose escalation to 400 mg bid that show robust improvement in Vanderbilt ADHD scores (at least 40% decrease),"Tier 2, Week 3, 100 mg bid",0%
same,Percent of subjects demonstrating robust improvement in Vanderbilt ADHD score (at least 40% decrease),[2],0%
same,Percent of subjects with improvement in Vanderbilt ADHD score (at least 25% decrease),[2],14%
same,Percent of subjects completing the dose escalation to 400 mg bid that show improvement in Vanderbilt ADHD scores (at least 25% decrease),"Tier 2, Week 4, 200 mg bid",20%
same,Percent of subjects completing the dose escalation to 400 mg bid that show robust improvement in Vanderbilt ADHD scores (at least 40% decrease),"Tier 2, Week 4, 200 mg bid",20%
same,Percent of subjects demonstrating robust improvement in Vanderbilt ADHD score (at least 40% decrease),[3],14%
same,Percent of subjects with improvement in Vanderbilt ADHD score (at least 25% decrease),[3],43%
same,Percent of subjects completing the dose escalation to 400 mg bid that show improvement in Vanderbilt ADHD scores (at least 25% decrease),"Tier 2, Week 5, 400 mg bid",80%
same,Percent of subjects completing the dose escalation to 400 mg bid that show robust improvement in Vanderbilt ADHD scores (at least 40% decrease),"Tier 2, Week 5, 400 mg bid",20%
same,Percent of subjects demonstrating robust improvement in Vanderbilt ADHD score (at least 40% decrease),[4],29%
same,Percent of subjects with improvement in Vanderbilt ADHD score (at least 25% decrease),[4],86%
same,Percent of subjects completing the dose escalation to 400 mg bid that show improvement in Vanderbilt ADHD scores (at least 25% decrease),"Tier 3, Week 2, 50 mg bid",33%
same,Percent of subjects completing the dose escalation to 400 mg bid that show robust improvement in Vanderbilt ADHD scores (at least 40% decrease),"Tier 3, Week 2, 50 mg bid",33%
same,Percent of subjects demonstrating robust improvement in Vanderbilt ADHD score (at least 40% decrease),"Tier 3, Week 2, 50 mg bid",50%
same,Percent of subjects with improvement in Vanderbilt ADHD score (at least 25% decrease),"Tier 3, Week 2, 50 mg bid",50%
same,Percent of subjects completing the dose escalation to 400 mg bid that show improvement in Vanderbilt ADHD scores (at least 25% decrease),"Tier 3, Week 3, 100 mg bid",0%
same,Percent of subjects completing the dose escalation to 400 mg bid that show robust improvement in Vanderbilt ADHD scores (at least 40% decrease),"Tier 3, Week 3, 100 mg bid",0%
same,Percent of subjects demonstrating robust improvement in Vanderbilt ADHD score (at least 40% decrease),[5],40%
same,Percent of subjects with improvement in Vanderbilt ADHD score (at least 25% decrease),[5],40%
same,Percent of subjects completing the dose escalation to 400 mg bid that show improvement in Vanderbilt ADHD scores (at least 25% decrease),"Tier 3, Week 4, 200 mg bid",0%
same,Percent of subjects completing the dose escalation to 400 mg bid that show robust improvement in Vanderbilt ADHD scores (at least 40% decrease),"Tier 3, Week 4, 200 mg bid",0%
same,Percent of subjects demonstrating robust improvement in Vanderbilt ADHD score (at least 40% decrease),[6],40%
same,Percent of subjects with improvement in Vanderbilt ADHD score (at least 25% decrease),[6],40%
same,Percent of subjects completing the dose escalation to 400 mg bid that show improvement in Vanderbilt ADHD scores (at least 25% decrease),"Tier 3, Week 5, 400 mg bid",67%
same,Percent of subjects completing the dose escalation to 400 mg bid that show robust improvement in Vanderbilt ADHD scores (at least 40% decrease),"Tier 3, Week 5, 400 mg bid",33%
same,Percent of subjects demonstrating robust improvement in Vanderbilt ADHD score (at least 40% decrease),[7],50%
same,Percent of subjects with improvement in Vanderbilt ADHD score (at least 25% decrease),[7],75%
